These results are taken from US20210100786A1, “Pharmaceutical Formulations” (CIPLA LIMITED, priority 2018, published 2021).

Structures are written as SMILES.

The test system of data set [1] is Caco-2 cells.
The test system of data set [2] is Caco-2 cells. The following applies: cited from earlier work.

As for `COc1nc2ccc(Br)cc2cc1[C@@H](c1ccccc1)[C@@](O)(CCN(C)C)c1cccc2ccccc12` [Bedaquiline], in the data set with Caco-2 cells [1], the absorption result was “increased” and the “efflux ratio (Papp B-A/Papp A-B)” value is reported as “decreasing the efflux ratio”. Besides, the P-gp substrate status entry with Caco-2 cells [2] is given as “known P-gp substrate”.
